Laboratory results: paper PMC8185074, “Anchor extension: a structure-guided approach to design cyclic peptides targeting enzyme active sites” (Nature Communications, 2021)
Peptide text beside a SMILES is read from it.

What was measured:
Assay type in all cases: biochemical
HDAC1 = target: T1, HDAC1 (Homo sapiens, UniProt Q13547); assay: HDAC1 inhibition, full IC50 measurement (Reaction Biology; fluorogenic p53 peptide RHKK(Ac)AMC); details: t1/t2 replicates
T1 construct: purchased Reaction Biology Corporation (assay run by the CRO)
Method in brief: (§1)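 Inhibitory peptides were acoustically dispensed with enzyme, then substrate added; 1 h at 30 °C. Developer stopped reaction; plateau endpoint fluorescence (360/460 nm) gave IC50.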

HDAC2 = target: T2, HDAC2 (Homo sapiens, UniProt Q92769); assay: HDAC2 inhibition, full IC50 measurement (Reaction Biology; fluorogenic p53 peptide RHKK(Ac)AMC)
T2 construct: purchased Reaction Biology Corporation (assay run by the CRO)
Method in brief: as §1

HDAC8 = target: T3, HDAC8 (Homo sapiens, UniProt Q9BY41); assay: HDAC8 inhibition, full IC50 measurement (Reaction Biology; fluorogenic p53 peptide RHKK(Ac)AMC); details: t1/t2 replicates
T3 construct: purchased Reaction Biology Corporation (assay run by the CRO)
T3 sequence (Q9BY41 1-377): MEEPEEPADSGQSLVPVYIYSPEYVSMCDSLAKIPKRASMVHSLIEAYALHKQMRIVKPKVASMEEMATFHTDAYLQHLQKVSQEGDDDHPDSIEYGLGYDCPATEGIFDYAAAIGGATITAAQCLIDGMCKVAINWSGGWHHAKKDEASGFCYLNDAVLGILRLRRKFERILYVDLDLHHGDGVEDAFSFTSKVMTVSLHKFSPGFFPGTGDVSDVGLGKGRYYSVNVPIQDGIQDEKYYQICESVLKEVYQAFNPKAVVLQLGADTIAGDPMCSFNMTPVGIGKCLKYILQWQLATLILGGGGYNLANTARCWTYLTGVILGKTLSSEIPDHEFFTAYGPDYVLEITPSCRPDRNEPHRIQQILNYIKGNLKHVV
Method in brief: as §1

[1] = peptide conc. 1.00E-05 M, listed as des4.1.0_t1
[2] = peptide conc. 1.00E-05 M, listed as des4.1.0_t2
[3] = peptide conc. 1.11E-06 M, listed as des4.1.0_t1
[4] = peptide conc. 1.11E-06 M, listed as des4.1.0_t2
[5] = peptide conc. 1.23E-07 M, listed as des4.1.0_t1
[6] = peptide conc. 1.23E-07 M, listed as des4.1.0_t2
[7] = peptide conc. 1.37E-08 M, listed as des4.1.0_t1
[8] = peptide conc. 1.37E-08 M, listed as des4.1.0_t2
[9] = peptide conc. 1.52E-09 M, listed as des4.1.0_t1
[10] = peptide conc. 1.52E-09 M, listed as des4.1.0_t2
[11] = peptide conc. 3.33E-06 M, listed as des4.1.0_t1
[12] = peptide conc. 3.33E-06 M, listed as des4.1.0_t2
[13] = peptide conc. 3.70E-07 M, listed as des4.1.0_t1
[14] = peptide conc. 3.70E-07 M, listed as des4.1.0_t2
[15] = peptide conc. 4.12E-08 M, listed as des4.1.0_t1
[16] = peptide conc. 4.12E-08 M, listed as des4.1.0_t2
[17] = peptide conc. 4.57E-09 M, listed as des4.1.0_t1
[18] = peptide conc. 4.57E-09 M, listed as des4.1.0_t2
[19] = peptide conc. 5.08E-10 M, listed as des4.1.0_t1
[20] = peptide conc. 5.08E-10 M, listed as des4.1.0_t2

T1 sequence (Q13547 whole entry): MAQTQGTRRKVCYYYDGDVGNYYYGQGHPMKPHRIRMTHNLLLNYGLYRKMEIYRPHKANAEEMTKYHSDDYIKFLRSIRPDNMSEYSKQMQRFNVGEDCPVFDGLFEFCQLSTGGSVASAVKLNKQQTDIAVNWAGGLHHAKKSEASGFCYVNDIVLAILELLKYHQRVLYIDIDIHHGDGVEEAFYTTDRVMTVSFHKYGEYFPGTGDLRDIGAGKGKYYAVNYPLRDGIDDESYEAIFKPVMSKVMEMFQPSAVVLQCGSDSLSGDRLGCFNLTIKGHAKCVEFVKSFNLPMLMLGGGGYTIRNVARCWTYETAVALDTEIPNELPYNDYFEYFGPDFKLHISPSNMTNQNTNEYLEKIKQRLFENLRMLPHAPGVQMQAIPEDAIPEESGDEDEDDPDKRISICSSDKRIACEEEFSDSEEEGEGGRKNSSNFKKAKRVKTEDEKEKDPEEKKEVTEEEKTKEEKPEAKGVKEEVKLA
T2 sequence (Q92769 whole entry): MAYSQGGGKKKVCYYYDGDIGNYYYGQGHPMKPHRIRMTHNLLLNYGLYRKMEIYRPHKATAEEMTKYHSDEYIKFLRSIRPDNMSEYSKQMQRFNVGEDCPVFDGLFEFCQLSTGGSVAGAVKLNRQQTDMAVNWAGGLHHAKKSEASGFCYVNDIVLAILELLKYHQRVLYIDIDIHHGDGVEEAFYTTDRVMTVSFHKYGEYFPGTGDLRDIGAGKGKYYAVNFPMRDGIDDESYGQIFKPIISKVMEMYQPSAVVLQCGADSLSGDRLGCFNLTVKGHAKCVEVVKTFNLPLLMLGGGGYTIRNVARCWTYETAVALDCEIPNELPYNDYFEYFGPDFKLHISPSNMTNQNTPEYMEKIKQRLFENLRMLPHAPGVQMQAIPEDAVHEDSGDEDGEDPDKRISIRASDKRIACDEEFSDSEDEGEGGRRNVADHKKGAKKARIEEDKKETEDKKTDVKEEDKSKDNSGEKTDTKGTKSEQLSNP

## N=C(N)NCCC[C@@H]1NC(=O)[C@H](Cc2c[nH]c3ccccc23)NC(=O)[C@H](CC(=O)O)NC(=O)[C@@H](CO)NC(=O)[C@H](Cc2c[nH]c3ccccc23)NC(=O)[C@H](CCCCCS)NC(=O)[C@H](CCC(N)=O)NC1=O [des4.1.0, SHA-Trp-dSer-Asp-Trp-Arg-Gln] (HELM PEPTIDE1{D.W.R.Q.[O=C([C@H](CCCCCS)N[*:1])[*:2]].W.[dS]}$PEPTIDE1,PEPTIDE1,1:R1-7:R2$$$V2.0)
HDAC1; [1]
  HDAC1 activity raw data (signal): 765
HDAC1; [2]
  HDAC1 activity raw data (signal): 43
HDAC1; [3]
  HDAC1 activity raw data (signal): 72647
HDAC1; [4]
  HDAC1 activity raw data (signal): 40074
HDAC1; [5]
  HDAC1 activity raw data (signal): 531723
HDAC1; [6]
  HDAC1 activity raw data (signal): 406309
HDAC1; [7]
  HDAC1 activity raw data (signal): 925044
HDAC1; [8]
  HDAC1 activity raw data (signal): 865901
HDAC1; [9]
  HDAC1 activity raw data (signal): 1099796
HDAC1; [10]
  HDAC1 activity raw data (signal): 1072226
HDAC1; [11]
  HDAC1 activity raw data (signal): 17702
HDAC1; [12]
  HDAC1 activity raw data (signal): 11850
HDAC1; [13]
  HDAC1 activity raw data (signal): 193534
HDAC1; [14]
  HDAC1 activity raw data (signal): 155666
HDAC1; [15]
  HDAC1 activity raw data (signal): 733473
HDAC1; [16]
  HDAC1 activity raw data (signal): 658176
HDAC1; [17]
  HDAC1 activity raw data (signal): 1015864
HDAC1; [18]
  HDAC1 activity raw data (signal): 988230
HDAC1; [19]
  HDAC1 activity raw data (signal): 1225387
HDAC1; [20]
  HDAC1 activity raw data (signal): 1041994
HDAC2; Conc. 1.00E-05 M, t1
  HDAC2 activity raw data (signal): -10519
HDAC2; Conc. 1.00E-05 M, t2
  HDAC2 activity raw data (signal): -26565
HDAC2; Conc. 1.11E-06 M, t1
  HDAC2 activity raw data (signal): 79842
HDAC2; Conc. 1.11E-06 M, t2
  HDAC2 activity raw data (signal): 48499
HDAC2; Conc. 1.23E-07 M, t1
  HDAC2 activity raw data (signal): 872533
HDAC2; Conc. 1.23E-07 M, t2
  HDAC2 activity raw data (signal): 734242
HDAC2; Conc. 1.37E-08 M, t1
  HDAC2 activity raw data (signal): 1715554
HDAC2; Conc. 1.37E-08 M, t2
  HDAC2 activity raw data (signal): 1674658
HDAC2; Conc. 1.52E-09 M, t1
  HDAC2 activity raw data (signal): 1955635
HDAC2; Conc. 1.52E-09 M, t2
  HDAC2 activity raw data (signal): 1838943
HDAC2; Conc. 3.33E-06 M, t1
  HDAC2 activity raw data (signal): 20013
HDAC2; Conc. 3.33E-06 M, t2
  HDAC2 activity raw data (signal): 16353
HDAC2; Conc. 3.70E-07 M, t1
  HDAC2 activity raw data (signal): 220224
HDAC2; Conc. 3.70E-07 M, t2
  HDAC2 activity raw data (signal): 182542
HDAC2; Conc. 4.12E-08 M, t1
  HDAC2 activity raw data (signal): 1421192
HDAC2; Conc. 4.12E-08 M, t2
  HDAC2 activity raw data (signal): 1355422
HDAC2; Conc. 4.57E-09 M, t1
  HDAC2 activity raw data (signal): 1969255
HDAC2; Conc. 4.57E-09 M, t2
  HDAC2 activity raw data (signal): 1793366
HDAC2; Conc. 5.08E-10 M, t1
  HDAC2 activity raw data (signal): 1865278
HDAC2; Conc. 5.08E-10 M, t2
  HDAC2 activity raw data (signal): 1807628
HDAC8; [1]
  HDAC8 activity raw data (signal): 100967
HDAC8; [2]
  HDAC8 activity raw data (signal): 38752
HDAC8; [3]
  HDAC8 activity raw data (signal): 234716
HDAC8; [4]
  HDAC8 activity raw data (signal): 226734
HDAC8; [5]
  HDAC8 activity raw data (signal): 803512
HDAC8; [6]
  HDAC8 activity raw data (signal): 713240
HDAC8; [7]
  HDAC8 activity raw data (signal): 943537
HDAC8; [8]
  HDAC8 activity raw data (signal): 964221
HDAC8; [9]
  HDAC8 activity raw data (signal): 948817
HDAC8; [10]
  HDAC8 activity raw data (signal): 953073
HDAC8; [11]
  HDAC8 activity raw data (signal): 100659
HDAC8; [12]
  HDAC8 activity raw data (signal): 171679
HDAC8; [13]
  HDAC8 activity raw data (signal): 597298
HDAC8; [14]
  HDAC8 activity raw data (signal): 553055
HDAC8; [15]
  HDAC8 activity raw data (signal): 940975
HDAC8; [16]
  HDAC8 activity raw data (signal): 825924
HDAC8; [17]
  HDAC8 activity raw data (signal): 958670
HDAC8; [18]
  HDAC8 activity raw data (signal): 869070
HDAC8; [19]
  HDAC8 activity raw data (signal): 1026116
HDAC8; [20]
  HDAC8 activity raw data (signal): 927553
